Assay results taken from patent publication US20260062414A1, “NOVEL COCRYSTALS OF METHYLXANTHINES, THEIR POLYMORPHS AND PROCESS THEREOF” (FERTIS INDIA PVT LTD, priority 2022, published 2026).

Experiment: Dissolution studies of cocrystals
Settings: for Release rate of active ingredient compared to pure form: dissolution study, cocrystal vs pure methylxanthine
Method: In an embodiment, the dissolution study of the cocrystals of Methylxanthines with the coformers Pterostilbene and Resveratrol were evaluated.

| SMILES | Bioavailability compared to pure form | Solubility compared to pure form | Release rate of active ingredient compared to pure form |
| --- | --- | --- | --- |
| COc1cc(/C=C/c2ccc(O)cc2)cc(OC)c1.Cn1cnc2c1c(=O)[nH]c(=O)n2C [TB:PB, Theobromine: Pterostilbene (1:1) Cocrystal] | better bioavailability | improved solubility |  |
| COc1cc(/C=C/c2ccc(O)cc2)cc(OC)c1.Cn1c(=O)c2c(n(C)c1=O)n(C)c(=O)n2C [TC:PB, Theacrine: Pterostilbene] | more bioavailable | lower solubility | slow-release rate |
| COc1cc(/C=C/c2ccc(O)cc2)cc(OC)c1.Cn1c(=O)c2c(ncn2C)n(C)c1=O [CA:PB, Caffeine: Pterostilbene] | more bioavailable |  | slow-release rate |
| COc1cc(/C=C/c2ccc(O)cc2)cc(OC)c1.COc1nc2c(c(=O)n1C)n(C)c(=O)n2C [ML:PB, Methylliberine: Pterostilbene] | more bioavailable | lower solubility | slow-release rate |
| COc1cc(/C=C/c2ccc(O)cc2)cc(OC)c1.Cn1c(=O)[nH]c2ncn(C)c2c1=O [PX:PB, Paraxanthine: Pterostilbene (1:1) Cocrystal] | more bioavailable | lower solubility | slow-release rate |
| Cn1c(=O)c2[nH]cnc2n(C)c1=O.Oc1ccc(/C=C/c2cc(O)cc(O)c2)cc1 [TP:RS, Theophylline: Resveratrol (1:1) Cocrystal] | more bioavailable | lower solubility | slow-release rate |
